# Data: publication PMC8288134, “Synthesis, potential antitumor activity, cell cycle analysis, and multitarget mechanisms of novel hydrazones incorporating a 4-methylsulfonylbenzene scaffold: a molecular docking study” (Journal of Enzyme Inhibition and Medicinal Chemistry, 2021)
# Read-outs that look alike come from different tables or passages of the source.
# What was measured:
# HL-60(TB) = test: cells; assay type: cell-based, human; conditions: Homo sapiens, HL-60, HL-60(TB); one dose 10 µM; read-out: Growth inhibition percentage (GI%)
# K-562 = test: NCI antitumor screen (SRB); assay type: cell-based; conditions: Homo sapiens, K562, read-out: Growth inhibition percentage (GI%)
# MOLT-4 = test: NCI antitumor screen (SRB); assay type: cell-based; conditions: Homo sapiens, one dose 10 µM, read-out: Growth inhibition percentage (GI%)
# A549/ATCC = test: NCI antitumor screen (SRB); assay type: cell-based; conditions: Homo sapiens, one dose 10 µM, read-out: Growth inhibition percentage (GI%)
# COLO 205 = test: NCI antitumor screen (SRB); assay type: cell-based; conditions: Homo sapiens, one dose 10 µM, read-out: Growth inhibition percentage (GI%)
# SNB-75 = test: NCI antitumor screen (SRB); assay type: cell-based; conditions: Homo sapiens, one dose 10 µM, read-out: Growth inhibition percentage (GI%)
# UACC-257 = test: NCI antitumor screen (SRB); assay type: cell-based, human; conditions: Homo sapiens, one dose 10 µM, read-out: Growth inhibition percentage (GI%)
# SK-OV-3 = test: NCI antitumor screen (SRB); assay type: cell-based; conditions: Homo sapiens, one dose 10 µM, read-out: Growth inhibition percentage (GI%)
# UO-31 = test: NCI antitumor screen (SRB); assay type: cell-based, human; conditions: Homo sapiens, one dose 10 µM, read-out: Growth inhibition percentage (GI%)
# [1] = system: full panel of 59 cancer cell lines; test: NCI antitumor screen, full panel; conditions: one dose 10 µM
# CCRF-CEM = test: NCI antitumor screen (SRB); assay type: cell-based; conditions: Homo sapiens, one dose 10 µM, read-out: Growth inhibition percentage (GI%)
# PRMI-8226 = test: NCI antitumor screen (SRB); assay type: cell-based; conditions: Homo sapiens, one dose 10 µM, read-out: Growth inhibition percentage (GI%)
# SR = test: NCI antitumor screen (SRB); assay type: cell-based; conditions: Homo sapiens, one dose 10 µM, read-out: Growth inhibition percentage (GI%)
# EKVX = test: NCI antitumor screen (SRB); assay type: cell-based; conditions: Homo sapiens, one dose 10 µM, read-out: Growth inhibition percentage (GI%)
# NCI-H226 = test: NCI antitumor screen (SRB); assay type: cell-based; conditions: Homo sapiens, one dose 10 µM, read-out: Growth inhibition percentage (GI%)
# NCI-H23 = test: NCI antitumor screen (SRB); assay type: cell-based; conditions: Homo sapiens, one dose 10 µM, read-out: Growth inhibition percentage (GI%)
# NCI-H460 = test: NCI antitumor screen (SRB); assay type: cell-based; conditions: Homo sapiens, one dose 10 µM, read-out: Growth inhibition percentage (GI%)
# HCC-2998 = test: NCI antitumor screen (SRB); assay type: cell-based; conditions: Homo sapiens, one dose 10 µM, read-out: Growth inhibition percentage (GI%)
# HCT-116 = test: NCI antitumor screen (SRB); assay type: cell-based; conditions: Homo sapiens, read-out: Growth inhibition percentage (GI%)
# HCT-15 = test: NCI antitumor screen (SRB); assay type: cell-based; conditions: Homo sapiens, one dose 10 µM, read-out: Growth inhibition percentage (GI%)
# HT29 = test: NCI antitumor screen (SRB); assay type: cell-based; conditions: Homo sapiens, HT-29, one dose 10 µM, read-out: Growth inhibition percentage (GI%)
# KM12 = test: NCI antitumor screen (SRB); assay type: cell-based; conditions: Homo sapiens, one dose 10 µM, read-out: Growth inhibition percentage (GI%)
# SW-620 = test: NCI antitumor screen (SRB); assay type: cell-based; conditions: Homo sapiens, one dose 10 µM, read-out: Growth inhibition percentage (GI%)
# SF-268 = test: NCI antitumor screen (SRB); assay type: cell-based; conditions: Homo sapiens, one dose 10 µM, read-out: Growth inhibition percentage (GI%)
# SF-295 = test: NCI antitumor screen (SRB); assay type: cell-based; conditions: Homo sapiens, one dose 10 µM, read-out: Growth inhibition percentage (GI%)
# SF-539 = test: NCI antitumor screen (SRB); assay type: cell-based; conditions: Homo sapiens, one dose 10 µM, read-out: Growth inhibition percentage (GI%)
# SNB-19 = test: NCI antitumor screen (SRB); assay type: cell-based; conditions: Homo sapiens, one dose 10 µM, read-out: Growth inhibition percentage (GI%)
# U251 = test: NCI antitumor screen (SRB); assay type: cell-based; conditions: Homo sapiens, U-251, one dose 10 µM, read-out: Growth inhibition percentage (GI%)
# LOX IMVI = test: NCI antitumor screen (SRB); assay type: cell-based; conditions: Homo sapiens, one dose 10 µM, read-out: Growth inhibition percentage (GI%)
# MALME-3M = test: NCI antitumor screen (SRB); assay type: cell-based; conditions: Homo sapiens, one dose 10 µM, read-out: Growth inhibition percentage (GI%)
# M14 = test: NCI antitumor screen (SRB); assay type: cell-based; conditions: Homo sapiens, one dose 10 µM, read-out: Growth inhibition percentage (GI%)
# MDA-MB-435 = test: NCI antitumor screen (SRB); assay type: cell-based; conditions: Homo sapiens, one dose 10 µM, read-out: Growth inhibition percentage (GI%)
# SK-MEL-28 = test: NCI antitumor screen (SRB); assay type: cell-based, human; conditions: Homo sapiens, SK-MEL-28, SK-MEL-28; one dose 10 µM; read-out: Growth inhibition percentage (GI%)
# UACC-62 = test: NCI antitumor screen (SRB); assay type: cell-based; conditions: Homo sapiens, one dose 10 µM, read-out: Growth inhibition percentage (GI%)
# IGROV1 = test: NCI antitumor screen (SRB); assay type: cell-based; conditions: Homo sapiens, IGROV-1, one dose 10 µM, read-out: Growth inhibition percentage (GI%)
# OVCAR-3 = test: NCI antitumor screen (SRB); assay type: cell-based; conditions: Homo sapiens, one dose 10 µM, read-out: Growth inhibition percentage (GI%)
# OVCAR-4 = test: NCI antitumor screen (SRB); assay type: cell-based; conditions: Homo sapiens, one dose 10 µM, read-out: Growth inhibition percentage (GI%)
# OVCAR-5 = test: NCI antitumor screen (SRB); assay type: cell-based; conditions: Homo sapiens, one dose 10 µM, read-out: Growth inhibition percentage (GI%)
# OVCAR-8 = test: NCI antitumor screen (SRB); assay type: cell-based; conditions: Homo sapiens, one dose 10 µM, read-out: Growth inhibition percentage (GI%)
# NCI/ADR-RES = test: NCI antitumor screen (SRB); assay type: cell-based; conditions: Homo sapiens, one dose 10 µM, read-out: Growth inhibition percentage (GI%)
# 786-0 = test: NCI antitumor screen (SRB); assay type: cell-based; conditions: Homo sapiens, one dose 10 µM, read-out: Growth inhibition percentage (GI%)
# A498 = test: NCI antitumor screen (SRB); assay type: cell-based; conditions: Homo sapiens, one dose 10 µM, read-out: Growth inhibition percentage (GI%)
# ACHN = test: NCI antitumor screen (SRB); assay type: cell-based; conditions: Homo sapiens, one dose 10 µM, read-out: Growth inhibition percentage (GI%)
# CAKI-1 = test: NCI antitumor screen (SRB); assay type: cell-based; conditions: Homo sapiens, one dose 10 µM, read-out: Growth inhibition percentage (GI%)
# RXF 393 = test: NCI antitumor screen (SRB); assay type: cell-based; conditions: Homo sapiens, one dose 10 µM, read-out: Growth inhibition percentage (GI%)
# SN12C = test: NCI antitumor screen (SRB); assay type: cell-based; conditions: Homo sapiens, one dose 10 µM, read-out: Growth inhibition percentage (GI%)
# TK-10 = test: NCI antitumor screen (SRB); assay type: cell-based; conditions: Homo sapiens, one dose 10 µM, read-out: Growth inhibition percentage (GI%)
# PC-3 = test: NCI antitumor screen (SRB); assay type: cell-based; conditions: Homo sapiens, one dose 10 µM, read-out: Growth inhibition percentage (GI%)
# DU-145 = test: NCI antitumor screen (SRB); assay type: cell-based; conditions: Homo sapiens, one dose 10 µM, read-out: Growth inhibition percentage (GI%)
# MCF7 = test: NCI antitumor screen (SRB); assay type: cell-based; conditions: Homo sapiens, one dose 10 µM, read-out: Growth inhibition percentage (GI%)
# MDA-MB-231/ATCC = test: NCI antitumor screen (SRB); assay type: cell-based; conditions: Homo sapiens, one dose 10 µM, read-out: Growth inhibition percentage (GI%)
# HS 578 T = test: NCI antitumor screen (SRB); assay type: cell-based; conditions: Homo sapiens, one dose 10 µM, read-out: Growth inhibition percentage (GI%)
# BT-549 = test: NCI antitumor screen (SRB); assay type: cell-based; conditions: Homo sapiens, one dose 10 µM, read-out: Growth inhibition percentage (GI%)
# T-47D = test: NCI antitumor screen (SRB); assay type: cell-based; conditions: Homo sapiens, T47D, one dose 10 µM, read-out: Growth inhibition percentage (GI%)
# MDA-MB-468 = test: NCI antitumor screen (SRB); assay type: cell-based; conditions: Homo sapiens, one dose 10 µM, read-out: Growth inhibition percentage (GI%)
# [2] = system: ovarian cancer tumour cell lines; test: NCI antitumor screen, subpanel; assay type: cell-based; conditions: 10 µM
smiles,measurement,setting,value
"COc1cc(C=NNC(=O)c2ccc(S(C)(=O)=O)cc2)cc(OC)c1OC [Compound 23, 4-(Methylsulfonyl)-N'-(3,4,5-trimethoxybenzylidene)benzohydrazide]",inhibition at 10 µM,HL-60(TB),44.2%
same,inhibition at 10 µM,K-562,37.6%
same,inhibition at 10 µM,MOLT-4,32.6%
same,inhibition at 10 µM,A549/ATCC,22.8%
same,inhibition at 10 µM,COLO 205,14.6%
same,inhibition at 10 µM,SNB-75,11.3%
same,inhibition at 10 µM,UACC-257; UACC-257,28.6%
same,inhibition at 10 µM,SK-OV-3,14.2%
same,inhibition at 10 µM,UO-31; UO-31,10.2%
same,PCE: positive cytotoxic effect (number of cell lines with GI 10 to 100% / total number of cell lines),[1],9/59
"Cc1ccc(NC(=O)c2ccc(CN3CCN(C)CC3)cc2)cc1Nc1nccc(-c2cccnc2)n1 [Imatinib, imatinib, reference compound]",inhibition at 10 µM,CCRF-CEM,< 10%
same,inhibition at 10 µM,HL-60(TB),< 10%
same,inhibition at 10 µM,MOLT-4,18%
same,inhibition at 10 µM,PRMI-8226,12.6%
same,inhibition at 10 µM,SR,14.6%
same,inhibition at 10 µM,A549/ATCC,< 10%
same,inhibition at 10 µM,EKVX,15.7%
same,inhibition at 10 µM,NCI-H226,10.6%
same,inhibition at 10 µM,NCI-H23,17.1%
same,inhibition at 10 µM,NCI-H460,< 10%
same,inhibition at 10 µM,COLO 205,< 10%
same,inhibition at 10 µM,HCC-2998,< 10%
same,inhibition at 10 µM,HCT-116,18.6%
same,inhibition at 10 µM,HCT-15,11.5%
same,inhibition at 10 µM,HT29,47.1%
same,inhibition at 10 µM,KM12,< 10%
same,inhibition at 10 µM,SW-620,< 10%
same,inhibition at 10 µM,SF-268,< 10%
same,inhibition at 10 µM,SF-295,15.1%
same,inhibition at 10 µM,SF-539,24.5%
same,inhibition at 10 µM,SNB-19,< 10%
same,inhibition at 10 µM,SNB-75,< 10%
same,inhibition at 10 µM,U251,10.6%
same,inhibition at 10 µM,LOX IMVI,11.6%
same,inhibition at 10 µM,MALME-3M,< 10%
same,inhibition at 10 µM,M14,< 10%
same,inhibition at 10 µM,MDA-MB-435,< 10%
same,inhibition at 10 µM,SK-MEL-28,< 10%
same,inhibition at 10 µM,"UACC-257; UACC-257, UACC-257",< 10%
same,inhibition at 10 µM,UACC-62,< 10%
same,inhibition at 10 µM,IGROV1,< 10%
same,inhibition at 10 µM,OVCAR-3,< 10%
same,inhibition at 10 µM,OVCAR-4,< 10%
same,inhibition at 10 µM,OVCAR-5,< 10%
same,inhibition at 10 µM,OVCAR-8,< 10%
same,inhibition at 10 µM,NCI/ADR-RES,< 10%
same,inhibition at 10 µM,SK-OV-3,< 10%
same,inhibition at 10 µM,786-0,< 10%
same,inhibition at 10 µM,A498,13.7%
same,inhibition at 10 µM,ACHN,< 10%
same,inhibition at 10 µM,CAKI-1,< 10%
same,inhibition at 10 µM,RXF 393,< 10%
same,inhibition at 10 µM,SN12C,< 10%
same,inhibition at 10 µM,TK-10,< 10%
same,inhibition at 10 µM,"UO-31; UO-31, UO-31",< 10%
same,inhibition at 10 µM,PC-3,10.6%
same,inhibition at 10 µM,DU-145,14.4%
same,inhibition at 10 µM,MCF7,< 10%
same,inhibition at 10 µM,MDA-MB-231/ATCC,11.2%
same,inhibition at 10 µM,HS 578 T,< 10%
same,inhibition at 10 µM,BT-549,< 10%
same,inhibition at 10 µM,T-47D,18.6%
same,inhibition at 10 µM,MDA-MB-468,29.1%
same,GI (range over subpanel cell lines),[2],< 10.0%
same,percentage mean growth (MG),[1]; mean over cell lines,92.62%
